Patent US12655090B2, “Cyclopropylamide compounds against parasites in fish” (Intervet Inc., priority 2021, dated 2026)
Like-named read-outs stand apart in the source and are kept apart here.

Tests used:
[1] = tested on: Copepodids (juvenile sea lice stage of Lepeophtheirus salmonis); experiment: Juvenile sea lice contact assay; settings: approximately 24 hours continuous exposure in seawater, read-out: Sea lice inhibition (% of dead+damaged copepodids); for inhibition at 0.01 µM: test concentration 10 nM; for inhibition at 10 pM: test concentration 0.01 nM; for inhibition at 0.1 µM: test concentration 100 nM
Protocol: Copepodids (juvenile sea lice stage of Lepeophtheirus salmonis) were exposed to seawater spiked with declining concentrations of a test compound (dissolved in a DMSO sea-water mixture). Sea lice inhibition (% of dead+damaged copepodids) was assessed after approximately 24 hours of continuous exposure. The vitality of used parasites was confirmed in a negative (solvent) control group.

[2] = tested on: Mobile stages of sea lice (pre-adults, adults of Lepeophtheirus salmonis); experiment: Adult sea lice contact assay; settings: assessed after approximately 1 and 24 hours of continuous exposure, read-out: EC50 (sea lice inhibition, dead+damaged sea lice)
Protocol: Mobile stages of sea lice (i.e., pre-adults, adults of Lepeophtheirus salmonis) were exposed to seawater spiked with declining concentrations of a test compound (dissolved in a PEG sea-water mixture). Sea lice inhibition (% of dead+damaged sea lice) was assessed after approximately 1 and 24 hours of continuous exposure in comparison to a negative (solvent) control group.

[3] = tested on: fully susceptible Lepeophtheirus salmonis isolate, mobile sea lice stages; experiment: Sea lice resistance assay, sensitive isolate
Protocol: (§1) A sea lice resistance assay was carried out using mobile sea lice stages (i.e., pre-adults, adults) of several Lepeophtheirus salmonis-isolates with known resistance profiles (i.e., fully susceptible or multiresistant (resistant to azametiphos (OP), emamectin benzoate (ML), deltamethrin (SP)). Sea lice were exposed to seawater spiked with declining concentrations of a test compound (dissolved in a PEG300/sea-water mixture). Sea lice inhibition (% of dead+damaged sea lice) was assessed after approximately 24 and 48 hours of continuous exposure in comparison to a negative (solvent) control group.

[4] = tested on: multiresistant Lepeophtheirus salmonis isolate (resistant to azametiphos, emamectin benzoate, deltamethrin), mobile sea lice stages; experiment: Sea lice resistance assay, multi-resistant isolate
Protocol: as §1

[5] = tested on: Lepeophtheirus salmonis sea lice on salmon (Salmo salar); experiment: Salmon in vivo efficacy trial using gavage administration; settings: po
Protocol: Salmon (Salmo salar) were treated once orally by gavage at a dose of 5 mg/kg bodyweight per fish (Day 0). As formulation DMSO 5%/fish oil 95% was used. Salmon of the negative control group received only the excipients of the formulation. The fish were infested with Lepeophtheirus salmonis copepodids twice before treatment (i.e., around day −28 and day −3) and once after treatment (i.e., day 17). […] Around day 28 (end of animal phase), fish were euthanized, and lice on each fish were classified ((pre-)adult or juvenile stage) and counted. […] Efficacy is expressed as a % reduction of sea lice in treated groups versus a control group, using the Abbott's formula.

[6] = tested on: Lepeophtheirus salmonis sea lice on salmon (Salmo salar); experiment: Salmon in vivo efficacy trial using in-feed administration; settings: 1 mg/kg fish biomass via coated feed for 7 consecutive days; for therapeutic efficacy against juvenile sea lice: day -3 infestation, counted around day 25; for therapeutic efficacy against (pre-)adult sea lice: day -28 infestation, counted around day 8
Protocol: Commercial fish feed pellets were coated with formulated test compound. As formulation DMSO 5%/fish oil 95% was used. Salmon (Salmo salar) were treated orally with 1 mg/kg fish biomass via coated feed for 7 consecutive days. Salmon of the negative control groups received only feed coated with the excipients of the formulation. Fish of the therapeutic groups were infested with Lepeophtheirus salmonis copepodids twice before treatment (around day −28 and day −3).

[7] = 168 h, read-out: therapeutic efficacy against (pre-)adult sea lice (% reduction vs control, Abbott's formula), once orally by gavage 5 mg/kg bodyweight, day -28 infestation, counted at day 7
[8] = 672 h, read-out: prophylactic efficacy at re-infestation on Day 17 (% reduction vs control, Abbott's formula), once orally by gavage 5 mg/kg bodyweight, re-infestation day 17, counted around day 28
[9] = 672 h, read-out: therapeutic efficacy against juvenile sea lice (% reduction vs control, Abbott's formula), once orally by gavage 5 mg/kg bodyweight, day -3 infestation, counted around day 28

Compound	EC50 [2]	inhibition in vivo at 5 mg/kg [5, 7]	inhibition in vivo at 5 mg/kg [5, 8]	inhibition in vivo at 5 mg/kg [5, 9]	inhibition at 0.01 µM [1]	further results
N#CC1(NC(=O)c2cc(NC(=O)[C@H]3[C@H](c4cc(Cl)cc(Cl)c4)C3(Cl)Cl)ccc2Cl)CC1 [Compound 1590]	≤ 1 nM	100%	80%	80%	–	inhibition at 0.001 µM ([1]; test concentration 1 nM): 80%; EC50 ([3]; after 24 hours): 4.12 ppb; EC50 ([3]; after 48 hours): 0.40 ppb; EC50 ([4]; after 24 hours): 3.75 ppb; EC50 ([4]; after 48 hours): 0.58 ppb; therapeutic efficacy against juvenile sea lice [6]: 100%; therapeutic efficacy against (pre-)adult sea lice [6]: 100%; prophylactic efficacy against re-infestation after treatment (D14) [6]: 100%; prophylactic efficacy against re-infestation after treatment (D28) [6]: 79.2%
N#CC1(NC(=O)c2cc(NC(=O)[C@H]3[C@H](c4cc(Cl)c(Cl)c(Cl)c4)C3(Cl)Cl)ccc2Cl)CC1 [Compound 1541]	1 to 10 nM	80%	100%	100%	100%	therapeutic efficacy against juvenile sea lice [6]: 100%; therapeutic efficacy against (pre-)adult sea lice [6]: 100%; prophylactic efficacy against re-infestation after treatment (D14) [6]: 100%; prophylactic efficacy against re-infestation after treatment (D28) [6]: 100%
O=C(NC1CC1)c1cc(NC(=O)[C@H]2[C@H](c3cc(Cl)cc(Cl)c3)C2(Cl)Cl)ccc1F [Compound 1632]	≤ 1 nM	100%	–	80%	–	inhibition at 10 pM [1]: 80%
O=C(NC1CC(F)(F)C1)c1cc(NC(=O)[C@H]2[C@H](c3cc(Cl)cc(Cl)c3)C2(Cl)Cl)cc(F)c1F [Compound 1628]	1 to 10 nM	100%	100%	100%	100%	–
N#CC1(NC(=O)c2cc(NC(=O)[C@H]3[C@H](c4cc(Cl)cc(Cl)c4)C3(Cl)Cl)cc(F)c2F)CC1 [Compound 1594]	≤ 1 nM	100%	100%	100%	–	inhibition at 0.0001 µM ([1]; test concentration 0.1 nM): 80%; therapeutic efficacy against juvenile sea lice [6]: 100%; therapeutic efficacy against (pre-)adult sea lice [6]: 100%; prophylactic efficacy against re-infestation after treatment (D14) [6]: 100%; prophylactic efficacy against re-infestation after treatment (D28) [6]: 100%
N#CC1(NC(=O)c2cc(NC(=O)[C@H]3[C@H](c4cc(Cl)c(F)c(Cl)c4)C3(Cl)Cl)ccc2Cl)CC1 [Compound 1609]	1 to 10 nM	100%	100%	100%	100%	–
O=C(NC1CC(F)(F)C1)c1cc(NC(=O)[C@H]2[C@H](c3cc(Cl)cc(Cl)c3)C2(Cl)Cl)ccc1F [Compound 1630]	≤ 1 nM	100%	100%	100%	100%	–
N#CC1(NC(=O)c2cc(NC(=O)C3C(c4cc(Cl)cc(Cl)c4)C3(Cl)Cl)ccc2F)CC1 (stereo not shown) [Compound 1605]	≤ 1 nM	100%	–	100%	–	inhibition at 10 pM [1]: 100%
CC1(NC(=O)c2cc(NC(=O)[C@H]3[C@H](c4cc(Cl)cc(Cl)c4)C3(Cl)Cl)ccc2F)CC1 [Compound 1626]	1 to 10 nM	100%	–	80%	≥ 80%	–
CC1(NC(=O)c2cc(NC(=O)[C@H]3[C@H](c4cc(Cl)cc(Cl)c4)C3(Cl)Cl)ccc2Cl)CC1 [Compound 1619]	≤ 1 nM	100%	–	80%	100%	–
O=C(NC1CC1)c1cc(NC(=O)[C@H]2[C@H](c3cc(Cl)cc(Cl)c3)C2(Cl)Cl)ccc1Cl [Compound 1621]	≤ 1 nM	100%	–	80%	100%	–
N#CC1(NC(=O)c2cc(NC(=O)[C@H]3[C@H](c4ccc(C(F)F)c(F)c4)C3(Cl)Cl)ccc2Cl)CC1 [Compound 1587]	≤ 1 nM	80%	–	–	–	inhibition at 0.1 µM [1]: 100%
O=C(NC1CC1)c1cc(NC(=O)[C@H]2[C@H](c3cc(Cl)cc(Cl)c3)C2(Cl)Cl)cc(F)c1F [Compound 1618]	≤ 1 nM	100%	100%	100%	100%	–
C#CC1(NC(=O)c2cc(NC(=O)[C@H]3[C@H](c4cc(Cl)cc(Cl)c4)C3(Cl)Cl)cc(F)c2F)CC1 [Compound 1617, 5-((1R,3R)-2,2-dichloro-3-(3,5-dichlorophenyl)cyclopropane-1-carboxamido)-N-(1-ethynylcyclopropyl)-2,3-difluorobenzamide]	≤ 1 nM	100%	100%	100%	–	inhibition at 0.1 µM [1]: 100%
